Measured values published in patent publication US8802664B2 (Bioproject, priority 2010, dated 2014).

Assays:
[1] = molecular target: T1, human H4 receptor (Homo sapiens, UniProt Q9H3N8); assay: [3H]Histamine binding on membranes of CHO cells stably expressing human H4 receptor
T1 construct: expressed in transfected cells
Method in brief: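 CHO-hH4 membranes 20 μg/well; buffer 50 mM Tris/HCl, 0.5 mM EDTA, pH 7.4; NSB: 10 μM JNJ 7777120 (BP1.2404); GF/B filtration (PEI-presoaked), 3 ice-cold washes; scintillation counting.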

Ki or IC50 activity class [1] [nM] | melting point [°C] | SMILES
< 300 | 182 | COc1cccc(C(NC2CCN(C)CC2)c2nc3ccccc3[nH]2)c1 (stereo not shown) [Example 70, [(1H-benzimidazol-2-yl)(3-methoxyphenyl)methyl](1-methylpiperidin-4-yl)amine]
< 30 | 144 | CN1CCC(OC(c2nc3ccccc3[nH]2)c2ccc(C(F)(F)F)cc2O)CC1 (stereo not shown) [Example 617]
< 30 | 151 | CN1CCC(NC(c2cccc(OCc3cccc(F)c3F)c2)c2nc3ccccc3[nH]2)CC1 (stereo not shown) [Example 162, {(1H-benzimidazol-2-yl)[3-(2,3-difluoro-benzyloxy)phenyl]methyl}(1-methylpiperidin-4-yl)amine]
< 300 | 198 | CN1CCC(OC(c2nc3ccccc3[nH]2)c2cc(F)c(F)cc2O)CC1 (stereo not shown) [Example 583]
< 300 | 144 | Cc1cc(F)c(O)c(C(OC2CCN(C)CC2)c2nc3ccccc3[nH]2)c1 (stereo not shown) [Example 595]
< 300 | 190 | Cc1ccccc1C(OC1CCN(C)CC1)c1nc2ccccc2[nH]1 (stereo not shown) [Example 193, 2-[(1-methylpiperidin-4-yloxy)-o-tolyl-methyl]-1H-benzimidazole]
< 1000 | 140 | CN1CCC(OC(c2nc3ccccc3[nH]2)c2cc(-c3ccccc3)ccc2O)CC1 (stereo not shown) [Example 589]
< 300 | 122 | CN1CCC(OC(c2ccc(Br)cc2)c2nc3ccccc3[nH]2)CC1 (stereo not shown) [Example 204, 2-[(4-bromophenyl)(1-methylpiperidin-4-yloxy)methyl]-1H-benzimidazole]
< 300 | 146 | CN1CCC(OC(c2nc3ccccc3[nH]2)c2cc(Cl)cc(F)c2O)CC1 (stereo not shown) [Example 599]
< 300 | 129 | CN1CCC(OC(c2nc3ccccc3[nH]2)c2cccc(-c3ccccc3)c2O)CC1 (stereo not shown) [Example 615]
< 300 | 102 | Cc1ccc(C(OC2CCN(C)CC2)c2nc3ccccc3[nH]2)cc1 (stereo not shown) [Example 177, 2-[(1-methylpiperidin-4-yloxy)-p-tolyl-methyl]-1H-benzimidazole]
< 300 | 132 | COc1cc(F)c(O)c(C(OC2CCN(C)CC2)c2nc3ccccc3[nH]2)c1 (stereo not shown) [Example 608]
< 300 | 117 to 120 | CN1CCC(OC(c2cccc(C#CCO)c2)c2nc3ccccc3[nH]2)CC1 (stereo not shown) [Example 190, 3-{3-[(1H-benzimidazol-2-yl)(1-methylpiperidin-4-yloxy)methyl]phenyl}prop-2-yn-1-ol]
< 300 | 77 | CN1CCC(OC(c2cccc(OCc3ccccn3)c2)c2nc3ccccc3[nH]2)CC1 (stereo not shown) [Example 310, 2-{(1-methylpiperidin-4-yloxy)[3-(pyridin-2-ylmethoxy)phenyl]methyl}-1H-benzimidazole]
< 30 | 126 | CN1CCC(OC(c2nc3ccccc3[nH]2)c2cccc(OC(F)(F)F)c2O)CC1 (stereo not shown) [Example 620]
< 30 | 134 | CN1CCC(OC(c2ccccc2)c2nc3cc(F)ccc3[nH]2)CC1 (stereo not shown) [Example 166, 5-fluoro-2-[(1-methylpiperidin-4-yloxy)phenylmethyl]-1H-benzimidazole]
< 30 | 173.5 | CN1CCC(OC(c2cccc(I)c2)c2nc3ccccc3[nH]2)CC1 (stereo not shown) [Example 51, 2-[(3-iodophenyl)(1-methylpiperidin-4-yloxy)methyl]-1H-benzimidazole]
< 30 | 118 to 120 | CN1CCC(OC(c2nc3ccccc3[nH]2)c2ccccc2O)CC1 (stereo not shown) [Example 561, 2-[(1H-benzimidazol-2-yl)(1-methylpiperidin-4-yloxy)methyl]phenol]
< 30 | 181 | CN1CCC(OC(c2nc3ccccc3[nH]2)c2ccccc2F)CC1 (stereo not shown) [Example 167, 2-[(2-fluorophenyl)(1-methylpiperidin-4-yloxy)methyl]-1H-benzimidazole]
< 30 | 145 | CN1CCC(OC(c2nc3ccccc3[nH]2)c2cccc(F)c2O)CC1 (stereo not shown) [Example 581]
< 300 | 91 | CN1CCC(OC(c2nc3ccccc3[nH]2)c2ccc(C(F)(F)F)cc2F)CC1 (stereo not shown) [Example 540]

Ki or IC50 activity class [1] [nM] | melting point [°C] | SMILES
< 1000 | 189 | CN1CC=C(SC(c2cccc(Br)c2)c2nc3ccccc3[nH]2)CC1 (stereo not shown) [Example 530, 2-[(3-bromophenyl)(1-methyl-1,2,3,6-tetrahydropyridin-4-ylsulfanyl)methyl]-1H-benzimidazole]
< 300 | 125 | CN1CCC(OC(c2nc3ccccc3[nH]2)c2ccc3c(c2O)CCCC3)CC1 (stereo not shown) [Example 619]
< 300 | 97 | CN1CCC(OC(c2cccc(OCCCN)c2)c2nc3ccccc3[nH]2)CC1 (stereo not shown) [Example 327, 3-{3-[(1H-benzimidazol-2-yl)(1-methylpiperidin-4-yloxy)methyl]phenoxy}propylamine]
< 30 | 90 | CN1CCC(NC(c2cccc(C(F)(F)F)c2)c2nc3ccccc3[nH]2)CC1 (stereo not shown) [Example 59, [(1H-benzimidazol-2-yl)(3-trifluoromethylphenyl)methyl](1-methylpiperidin-4-yl)amine]
< 300 | 100 | CN1CCC(OC(c2cccc(N)c2)c2nc3ccccc3[nH]2)CC1 (stereo not shown) [Example 224, 3-[(1H-benzimidazol-2-yl)(1-methylpiperidin-4-yloxy)methyl]phenylamine]
< 30 | 97 | Cc1c(F)ccc(C(OC2CCN(C)CC2)c2nc3ccccc3[nH]2)c1O (stereo not shown) [Example 623]
< 300 | 86 | Cc1ccc(C(OC2CCN(C)CC2)c2nc3ccccc3[nH]2)cc1Cl (stereo not shown) [Example 552]
< 300 | 87 | Cc1ccc(COc2cccc(C(NC3CCN(C)CC3)c3nc4ccccc4[nH]3)c2)cc1 (stereo not shown) [Example 130, {(1H-benzimidazol-2-yl)[3-(4-methylbenzyloxy)phenyl]methyl}(1-methylpiperidin-4-yl)amine]
< 30 | 232 | CN1CCC(OC(c2nc3ccccc3[nH]2)c2cc(Br)ccc2F)CC1 (stereo not shown) [Example 555]
< 30 | 222 | CN1CCC(OC(c2nc3ccccc3[nH]2)c2cc(OCCF)ccc2O)CC1 (stereo not shown) [Example 605]
< 300 | 75 | CN1CCC(OC(c2nc3c(F)c(F)c(F)cc3[nH]2)c2cc(OC(F)(F)F)ccc2F)CC1 (stereo not shown) [Example 510]
< 300 | 74 | CCOc1cccc(C(NC2CCN(C)CC2)c2nc3ccccc3[nH]2)c1 (stereo not shown) [Example 83, [(1H-benzimidazol-2-yl)(3-ethoxyphenyl)methyl](1-methylpiperidin-4-yl)amine]
< 300 | 84 | CN1CCC(OC(c2cccc(C#CCCCN)c2)c2nc3ccccc3[nH]2)CC1 (single isomer, unassigned) [Example 565, 5-{3-[(1H-benzimidazol-2-yl)(1-methylpiperidin-4-yloxy)methyl]phenyl}pent-4-ynylamine]
< 1000 | 146 | CN1CCC(OC(c2cccc(CCC3CNC3)c2)c2nc3ccccc3[nH]2)CC1 (stereo not shown) [Example 392, 2-[[3-(2-azetidin-3-ylethyl)phenyl](1-methylpiperidin-4-yloxy)methyl]-1H-benzimidazole]
< 1000 | 131 | CN1CCC(OC(c2cccc(OCCCCCN3CCN(C(=O)OC(C)(C)C)CC3)c2)c2nc3ccccc3s2)CC1 (stereo not shown) [Example 362, 4-(5-{3-[benzothiazol-2-yl(1-methylpiperidin-4-yloxy)methyl]phenoxy}pentyl)piperazine-1-carboxylic acid tert-butyl ester]
< 30 | 146 | Cc1c(F)cc(C(OC2CCN(C)CC2)c2nc3ccccc3[nH]2)c(O)c1F (stereo not shown) [Example 624]
< 300 | 115 | CN1CCC(OC(c2ccccc2)c2nc3ccccc3s2)CC1 (stereo not shown) [Example 1, 2-[(1-methylpiperidin-4-yloxy)phenylmethyl]benzothiazole]
< 30 | 128 | CN1CCC(OC(c2ccc3c(c2)OCCC3)c2nc3ccccc3[nH]2)CC1 (stereo not shown) [Example 543]
< 1000 | 135 | CCCOc1cccc(C(OC2CCN(C)CC2)c2nc3ccccc3[nH]2)c1 (stereo not shown) [Example 49, 2-[(1-methylpiperidin-4-yloxy)(3-propoxyphenyl)methyl]-1H-benzimidazole]
< 300 | 203 | CN1CCC(OC(c2ccc3c(c2)OCCO3)c2nc3ccccc3[nH]2)CC1 (stereo not shown) [Example 300, 2-[(2,3-dihydrobenzo[1,4]dioxin-6-yl)(1-methylpiperidin-4-yloxy)methyl]-1H-benzimidazole]
< 30 | 76 | CCc1cccc(C(NC2CCN(C)CC2)c2nc3ccccc3[nH]2)c1 (stereo not shown) [Example 61, [(1H-benzimidazol-2-yl)(3-ethylphenyl)methyl](1-methylpiperidin-4-yl)amine]

SMILES | Ki or IC50 activity class [1] [nM] | melting point [°C]
CN1CCC(NC(c2cccc(OCCCCN)c2)c2nc3ccccc3s2)CC1 (stereo not shown) [Example 387, {[3-(4-aminobutoxy)phenyl]benzothiazol-2-yl-methyl}(1-methylpiperidin-4-yl)amine] | < 30 | 67
CC(C)COc1cccc(C(NC2CCN(C)CC2)c2nc3ccccc3[nH]2)c1 (stereo not shown) [Example 67, [(1H-benzimidazol-2-yl)(3-isobutoxyphenyl)methyl](1-methylpiperidin-4-yl)amine] | < 30 | 99
